# Assay results reported in the kinase profiling compilation of Christmann-Franck et al. (2016).
# Key:
# Assay in all cases: Caliper, Mobility shift assay off-chip
# [1] = target: PRKCA (human) (UniProt P17252)
# [2] = target: CDK1 (human) (UniProt P06493)
# [3] = target: SIK1 (human) (UniProt P57059)
# [4] = target: MELK (human) (UniProt Q14680)
# [5] = target: HIPK2 (human) (UniProt Q9H2X6)
# [6] = target: NEK7 (human) (UniProt Q8TDX7)
# [7] = target: NUAK2 (human) (UniProt Q9H093)
# [8] = target: MAPKAPK2 (human) (UniProt P49137)
# [9] = target: YES1 (human) (UniProt P07947)
# [10] = target: TEK (human) (UniProt Q02763)
# [11] = target: STK10 (human) (UniProt O94804)
# [12] = target: EPHB1 (human) (UniProt P54762)
# [13] = target: TSSK1B (human) (UniProt Q9BXA7)
# [14] = target: PTK2B (human) (UniProt Q14289)
# [15] = target: MAPK7 (human) (UniProt Q13164)
# [16] = target: CDK7 (human) (UniProt P50613)
# CDK7 (human), sequence (P50613 whole entry, looked up): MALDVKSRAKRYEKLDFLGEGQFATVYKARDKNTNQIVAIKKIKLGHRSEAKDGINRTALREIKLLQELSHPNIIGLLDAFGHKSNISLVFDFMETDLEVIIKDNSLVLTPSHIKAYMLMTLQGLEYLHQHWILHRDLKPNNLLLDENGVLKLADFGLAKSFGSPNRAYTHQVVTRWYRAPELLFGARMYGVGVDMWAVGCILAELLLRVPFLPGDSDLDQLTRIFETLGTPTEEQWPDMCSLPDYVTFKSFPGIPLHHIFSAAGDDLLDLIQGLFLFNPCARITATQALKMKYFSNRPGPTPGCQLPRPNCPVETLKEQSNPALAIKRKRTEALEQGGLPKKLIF
# [17] = target: SPHK2 (human) (UniProt Q9NRA0)
# SPHK2 (human), sequence (Q9NRA0 whole entry, looked up): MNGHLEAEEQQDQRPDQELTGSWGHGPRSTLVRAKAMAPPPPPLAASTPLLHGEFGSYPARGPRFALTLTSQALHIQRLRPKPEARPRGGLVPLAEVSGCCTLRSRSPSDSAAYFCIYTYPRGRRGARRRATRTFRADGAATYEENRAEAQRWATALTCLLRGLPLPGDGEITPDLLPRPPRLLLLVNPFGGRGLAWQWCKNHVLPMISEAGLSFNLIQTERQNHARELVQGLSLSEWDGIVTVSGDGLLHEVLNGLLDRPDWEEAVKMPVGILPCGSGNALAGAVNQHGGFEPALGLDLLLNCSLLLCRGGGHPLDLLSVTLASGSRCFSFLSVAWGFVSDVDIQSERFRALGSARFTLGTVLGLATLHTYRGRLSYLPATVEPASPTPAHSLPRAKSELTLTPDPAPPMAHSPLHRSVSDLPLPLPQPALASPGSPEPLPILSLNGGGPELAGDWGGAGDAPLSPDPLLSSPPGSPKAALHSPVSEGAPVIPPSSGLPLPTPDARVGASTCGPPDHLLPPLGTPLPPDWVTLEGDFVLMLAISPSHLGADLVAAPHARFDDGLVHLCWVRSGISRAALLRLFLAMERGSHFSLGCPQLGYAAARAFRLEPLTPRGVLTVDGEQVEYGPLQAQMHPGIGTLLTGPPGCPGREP
# [18] = target: PAK7 (human) (UniProt Q9P286)
# [19] = target: AKT2 (human) (UniProt P31751)
# AKT2 (human), sequence (P31751 whole entry, looked up): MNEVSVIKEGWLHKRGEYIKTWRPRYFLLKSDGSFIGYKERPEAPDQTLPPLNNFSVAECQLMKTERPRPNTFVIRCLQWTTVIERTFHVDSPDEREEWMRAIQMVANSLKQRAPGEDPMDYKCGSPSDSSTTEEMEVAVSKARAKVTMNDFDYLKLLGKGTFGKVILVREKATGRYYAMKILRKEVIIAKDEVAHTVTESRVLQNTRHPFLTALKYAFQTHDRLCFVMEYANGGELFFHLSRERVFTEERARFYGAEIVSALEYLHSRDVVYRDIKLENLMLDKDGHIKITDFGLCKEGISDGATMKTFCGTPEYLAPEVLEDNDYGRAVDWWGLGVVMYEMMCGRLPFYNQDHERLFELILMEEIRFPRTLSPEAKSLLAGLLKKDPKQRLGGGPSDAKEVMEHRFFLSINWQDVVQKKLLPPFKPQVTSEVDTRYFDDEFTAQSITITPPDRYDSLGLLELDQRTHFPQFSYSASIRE
# [20] = target: MKNK2 (human) (UniProt Q9HBH9)
# [21] = target: ERBB2 (human) (UniProt P04626)
# [22] = target: WNK2 (human) (UniProt Q9Y3S1)
# [23] = target: TSSK2 (human) (UniProt Q96PF2)
# [24] = target: IGF1R (human) (UniProt P08069)
# [25] = target: SRMS (human) (UniProt Q9H3Y6)
# [26] = target: FYN (human) (UniProt P06241)
# [27] = target: ITK (human) (UniProt Q08881)
# ITK (human), sequence (Q08881 whole entry, looked up): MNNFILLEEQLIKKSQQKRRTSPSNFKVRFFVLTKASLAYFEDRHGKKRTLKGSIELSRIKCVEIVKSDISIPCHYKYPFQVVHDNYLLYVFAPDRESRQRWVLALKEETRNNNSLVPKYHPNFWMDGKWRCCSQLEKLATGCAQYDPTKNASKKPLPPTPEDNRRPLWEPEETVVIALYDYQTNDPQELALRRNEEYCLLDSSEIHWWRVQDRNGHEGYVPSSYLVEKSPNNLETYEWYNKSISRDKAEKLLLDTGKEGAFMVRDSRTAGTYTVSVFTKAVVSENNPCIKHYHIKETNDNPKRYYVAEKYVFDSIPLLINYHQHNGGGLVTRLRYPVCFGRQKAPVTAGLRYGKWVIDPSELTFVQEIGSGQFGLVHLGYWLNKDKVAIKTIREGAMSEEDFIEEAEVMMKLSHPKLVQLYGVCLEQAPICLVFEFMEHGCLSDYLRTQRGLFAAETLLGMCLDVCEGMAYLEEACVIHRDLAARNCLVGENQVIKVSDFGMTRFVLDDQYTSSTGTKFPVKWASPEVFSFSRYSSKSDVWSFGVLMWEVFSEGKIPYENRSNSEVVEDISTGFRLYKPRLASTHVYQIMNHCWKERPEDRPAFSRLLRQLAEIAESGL
# [28] = target: FER (human) (UniProt P16591)
# [29] = target: FGFR3 (human) (UniProt P22607)
# FGFR3 (human), sequence (P22607 whole entry, looked up): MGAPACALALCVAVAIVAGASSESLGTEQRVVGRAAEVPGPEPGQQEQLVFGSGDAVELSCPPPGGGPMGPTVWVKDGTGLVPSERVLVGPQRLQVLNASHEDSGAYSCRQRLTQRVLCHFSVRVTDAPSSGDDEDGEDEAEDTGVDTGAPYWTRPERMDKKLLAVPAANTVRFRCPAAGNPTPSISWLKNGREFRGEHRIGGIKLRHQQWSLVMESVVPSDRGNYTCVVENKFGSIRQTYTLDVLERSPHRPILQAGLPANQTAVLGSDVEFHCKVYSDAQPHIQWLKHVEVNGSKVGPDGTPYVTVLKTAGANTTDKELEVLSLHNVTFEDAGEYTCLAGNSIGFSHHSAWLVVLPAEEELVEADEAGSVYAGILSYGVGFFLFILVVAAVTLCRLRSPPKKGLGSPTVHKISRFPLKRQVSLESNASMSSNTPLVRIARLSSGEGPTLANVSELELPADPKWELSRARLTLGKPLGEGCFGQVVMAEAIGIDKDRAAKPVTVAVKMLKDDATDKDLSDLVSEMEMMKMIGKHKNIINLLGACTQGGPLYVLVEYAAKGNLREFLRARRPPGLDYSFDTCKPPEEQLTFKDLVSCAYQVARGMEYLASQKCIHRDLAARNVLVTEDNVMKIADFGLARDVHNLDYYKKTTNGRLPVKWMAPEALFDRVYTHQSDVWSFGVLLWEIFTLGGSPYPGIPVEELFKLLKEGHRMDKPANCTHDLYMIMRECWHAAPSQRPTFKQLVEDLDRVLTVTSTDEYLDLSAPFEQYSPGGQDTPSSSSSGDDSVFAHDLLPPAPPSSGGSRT
# [30] = target: PIM1 (human) (UniProt P11309)
# PIM1 (human), sequence (P11309 whole entry, looked up): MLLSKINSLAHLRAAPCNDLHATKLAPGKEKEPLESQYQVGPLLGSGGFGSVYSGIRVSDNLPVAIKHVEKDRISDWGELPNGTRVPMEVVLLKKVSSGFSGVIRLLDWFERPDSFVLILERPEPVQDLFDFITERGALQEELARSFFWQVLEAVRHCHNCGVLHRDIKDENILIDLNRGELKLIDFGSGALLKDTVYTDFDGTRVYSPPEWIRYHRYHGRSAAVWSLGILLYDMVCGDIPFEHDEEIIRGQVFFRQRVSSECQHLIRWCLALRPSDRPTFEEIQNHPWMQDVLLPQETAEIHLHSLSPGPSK
# [31] = target: BMX (human) (UniProt P51813)
# [32] = target: CAMK2A (human) (UniProt Q9UQM7)
# [33] = target: MAPK1 (human) (UniProt P28482)
# [34] = target: CDC42BPB (human) (UniProt Q9Y5S2)
# [35] = target: MAPK14 (human) (UniProt Q16539)
# NUAK2 (human), sequence (Q9H093 whole entry, looked up): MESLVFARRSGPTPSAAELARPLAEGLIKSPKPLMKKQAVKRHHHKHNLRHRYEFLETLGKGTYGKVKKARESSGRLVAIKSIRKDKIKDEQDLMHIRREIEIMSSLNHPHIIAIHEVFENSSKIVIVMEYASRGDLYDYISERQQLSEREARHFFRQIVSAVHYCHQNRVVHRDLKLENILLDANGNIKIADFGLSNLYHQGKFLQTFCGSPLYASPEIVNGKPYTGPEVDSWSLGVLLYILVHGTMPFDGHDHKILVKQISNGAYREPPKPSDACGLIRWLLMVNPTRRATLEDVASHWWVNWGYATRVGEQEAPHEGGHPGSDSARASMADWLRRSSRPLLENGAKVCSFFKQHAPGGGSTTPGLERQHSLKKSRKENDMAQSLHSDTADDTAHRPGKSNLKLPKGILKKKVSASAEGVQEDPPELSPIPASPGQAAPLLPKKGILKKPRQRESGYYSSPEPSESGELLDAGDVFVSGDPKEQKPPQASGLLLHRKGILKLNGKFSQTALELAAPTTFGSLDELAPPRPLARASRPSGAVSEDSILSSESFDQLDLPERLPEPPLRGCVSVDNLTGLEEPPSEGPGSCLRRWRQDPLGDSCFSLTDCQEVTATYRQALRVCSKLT
# HIPK2 (human), sequence (Q9H2X6 whole entry, looked up): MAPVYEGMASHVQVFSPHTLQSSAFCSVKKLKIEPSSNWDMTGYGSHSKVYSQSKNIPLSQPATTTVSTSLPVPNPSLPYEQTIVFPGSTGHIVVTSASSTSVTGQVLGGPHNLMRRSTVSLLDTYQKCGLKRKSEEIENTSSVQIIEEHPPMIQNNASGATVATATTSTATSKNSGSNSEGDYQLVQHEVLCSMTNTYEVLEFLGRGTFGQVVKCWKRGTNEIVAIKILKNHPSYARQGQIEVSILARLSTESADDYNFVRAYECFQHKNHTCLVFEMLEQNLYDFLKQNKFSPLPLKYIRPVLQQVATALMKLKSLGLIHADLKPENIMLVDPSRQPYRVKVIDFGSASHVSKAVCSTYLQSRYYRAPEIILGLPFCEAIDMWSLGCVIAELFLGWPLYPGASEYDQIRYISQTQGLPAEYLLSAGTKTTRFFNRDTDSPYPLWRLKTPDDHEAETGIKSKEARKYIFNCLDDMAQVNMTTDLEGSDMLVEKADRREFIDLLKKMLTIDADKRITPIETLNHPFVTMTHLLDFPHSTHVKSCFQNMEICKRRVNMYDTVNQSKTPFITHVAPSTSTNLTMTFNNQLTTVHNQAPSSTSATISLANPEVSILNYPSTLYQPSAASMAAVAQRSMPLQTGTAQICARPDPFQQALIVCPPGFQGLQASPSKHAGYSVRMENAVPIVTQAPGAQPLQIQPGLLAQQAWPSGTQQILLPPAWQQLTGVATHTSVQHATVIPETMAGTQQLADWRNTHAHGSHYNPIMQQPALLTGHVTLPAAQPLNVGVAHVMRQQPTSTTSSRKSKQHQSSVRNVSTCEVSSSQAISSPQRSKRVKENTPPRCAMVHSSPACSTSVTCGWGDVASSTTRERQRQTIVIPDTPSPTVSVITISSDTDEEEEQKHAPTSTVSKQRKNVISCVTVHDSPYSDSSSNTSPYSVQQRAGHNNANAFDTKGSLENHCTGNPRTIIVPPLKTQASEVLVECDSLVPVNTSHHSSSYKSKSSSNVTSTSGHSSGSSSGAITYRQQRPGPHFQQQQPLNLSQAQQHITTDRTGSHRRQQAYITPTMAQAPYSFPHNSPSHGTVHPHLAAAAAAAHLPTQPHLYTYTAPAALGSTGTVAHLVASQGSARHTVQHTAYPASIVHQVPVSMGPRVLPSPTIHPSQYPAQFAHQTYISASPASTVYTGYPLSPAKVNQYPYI
structure (smiles),measurement,setting,value
COc1cc2c(Oc3ccc4[nH]c(C)cc4c3F)ncnc2cc1OCCCN1CCCC1,inhibition,[1]; compound 0.02 µM,10.1%
same,inhibition,[1]; compound 0.2 µM,0.3%
same,inhibition,[2]; compound 0.02 µM,-0.7%
same,inhibition,[2]; compound 0.2 µM,-3.2%
same,inhibition,[3]; compound 0.02 µM,-3.3%
same,inhibition,[3]; compound 0.2 µM,-0.4%
same,inhibition,[4]; compound 0.02 µM,6.6%
same,inhibition,[4]; compound 0.2 µM,10%
same,inhibition,[5]; compound 0.02 µM,-1.7%
same,inhibition,[5]; compound 0.2 µM,0.7%
same,inhibition,[6]; compound 0.02 µM,-3.6%
same,inhibition,[6]; compound 0.2 µM,-4%
same,inhibition,[7]; compound 0.02 µM,8.9%
same,inhibition,[7]; compound 0.2 µM,-17.5%
same,inhibition,[8]; compound 0.02 µM,6.1%
same,inhibition,[8]; compound 0.2 µM,-1.5%
same,inhibition,[9]; compound 0.02 µM,26.9%
same,inhibition,[9]; compound 0.2 µM,73.7%
same,inhibition,[10]; compound 0.02 µM,5.8%
same,inhibition,[10]; compound 0.2 µM,48.5%
same,inhibition,[11]; compound 0.02 µM,45.1%
same,inhibition,[11]; compound 0.2 µM,91.7%
same,inhibition,[12]; compound 0.02 µM,-7.8%
same,inhibition,[12]; compound 0.2 µM,-0.3%
same,inhibition,[13]; compound 0.02 µM,-3.6%
same,inhibition,[13]; compound 0.2 µM,-3.6%
same,inhibition,[14]; compound 0.02 µM,-1.9%
same,inhibition,[14]; compound 0.2 µM,-5.4%
same,inhibition,[15]; compound 0.02 µM,-8.6%
same,inhibition,[15]; compound 0.2 µM,-6.2%
same,inhibition,[16]; compound 0.02 µM,-5.4%
same,inhibition,[16]; compound 0.2 µM,-4.5%
same,inhibition,[17]; compound 0.02 µM,6.4%
same,inhibition,[17]; compound 0.2 µM,2.8%
same,inhibition,[18]; compound 0.02 µM,-5.8%
same,inhibition,[18]; compound 0.2 µM,7.3%
same,inhibition,[19]; compound 0.02 µM,6.9%
same,inhibition,[19]; compound 0.2 µM,-0.1%
same,inhibition,[20]; compound 0.02 µM,-3.7%
same,inhibition,[20]; compound 0.2 µM,1.2%
same,inhibition,[21]; compound 0.02 µM,3.9%
same,inhibition,[22]; compound 0.02 µM,3.8%
same,inhibition,[22]; compound 0.2 µM,2.8%
same,inhibition,[23]; compound 0.02 µM,-4.1%
same,inhibition,[23]; compound 0.2 µM,-3.4%
same,inhibition,[24]; compound 0.02 µM,1.4%
same,inhibition,[24]; compound 0.2 µM,-1.5%
same,inhibition,[25]; compound 0.02 µM,-0.7%
same,inhibition,[25]; compound 0.2 µM,-1.7%
same,inhibition,[26]; compound 0.02 µM,13.7%
same,inhibition,[26]; compound 0.2 µM,35.9%
same,inhibition,[27]; compound 0.02 µM,6.7%
same,inhibition,[27]; compound 0.2 µM,5.5%
same,inhibition,[28]; compound 0.02 µM,8.7%
same,inhibition,[28]; compound 0.2 µM,11.2%
same,inhibition,[29]; compound 0.02 µM,72.3%
same,inhibition,[29]; compound 0.2 µM,96.5%
same,inhibition,[30]; compound 0.02 µM,-2.8%
same,inhibition,[30]; compound 0.2 µM,-8.3%
same,inhibition,[31]; compound 0.02 µM,8.4%
same,inhibition,[31]; compound 0.2 µM,7.1%
same,inhibition,[32]; compound 0.02 µM,3.5%
same,inhibition,[32]; compound 0.2 µM,3.9%
same,inhibition,[33]; compound 0.02 µM,-6.5%
same,inhibition,[33]; compound 0.2 µM,-9%
same,inhibition,[34]; compound 0.02 µM,-8.9%
same,inhibition,[34]; compound 0.2 µM,4.2%
same,inhibition,[35]; compound 0.02 µM,-4.9%
same,inhibition,[35]; compound 0.2 µM,-4.9%
CNC(=O)c1ccccc1Sc1ccc2c(/C=C/c3ccccn3)n[nH]c2c1,inhibition,[1]; compound 0.001 µM,15.9%
same,inhibition,[1]; compound 0.02 µM,0.7%
same,inhibition,[2]; compound 0.001 µM,-3.7%
same,inhibition,[2]; compound 0.02 µM,-3.5%
same,inhibition,[3]; compound 0.001 µM,-5.3%
same,inhibition,[3]; compound 0.02 µM,-4.6%
same,inhibition,[4]; compound 0.001 µM,1.9%
same,inhibition,[4]; compound 0.02 µM,0.9%
same,inhibition,[5]; compound 0.001 µM,-4.6%
same,inhibition,[5]; compound 0.02 µM,-0.1%
same,inhibition,[6]; compound 0.001 µM,-3.9%
same,inhibition,[6]; compound 0.02 µM,-4.1%
same,inhibition,[7]; compound 0.001 µM,9.9%
same,inhibition,[7]; compound 0.02 µM,-0.7%
same,inhibition,[8]; compound 0.001 µM,2.3%
same,inhibition,[8]; compound 0.02 µM,-0.8%
same,inhibition,[9]; compound 0.001 µM,5.9%
same,inhibition,[10]; compound 0.001 µM,-9%
same,inhibition,[10]; compound 0.02 µM,-4.9%
same,inhibition,[11]; compound 0.001 µM,6.2%
same,inhibition,[11]; compound 0.02 µM,21.3%
same,inhibition,[12]; compound 0.001 µM,-9.1%
same,inhibition,[12]; compound 0.02 µM,-6.5%
same,inhibition,[13]; compound 0.001 µM,-4.2%
same,inhibition,[13]; compound 0.02 µM,-3.6%
same,inhibition,[14]; compound 0.001 µM,-4.6%
same,inhibition,[14]; compound 0.02 µM,-1.4%
same,inhibition,[15]; compound 0.001 µM,-9.5%
same,inhibition,[15]; compound 0.02 µM,-9.5%
same,inhibition,[16]; compound 0.001 µM,-7.5%
same,inhibition,[16]; compound 0.02 µM,-3.4%
same,inhibition,[17]; compound 0.001 µM,2.8%
same,inhibition,[17]; compound 0.02 µM,-4.8%
same,inhibition,[18]; compound 0.001 µM,-2.5%
same,inhibition,[18]; compound 0.02 µM,7%
same,inhibition,[19]; compound 0.001 µM,0.8%
same,inhibition,[19]; compound 0.02 µM,-4.1%
same,inhibition,[20]; compound 0.001 µM,0.4%
same,inhibition,[20]; compound 0.02 µM,1.4%
same,inhibition,[21]; compound 0.001 µM,-1.2%
same,inhibition,[21]; compound 0.02 µM,-1.4%
same,inhibition,[22]; compound 0.001 µM,1.8%
same,inhibition,[22]; compound 0.02 µM,-0.3%
same,inhibition,[23]; compound 0.001 µM,-5.1%
same,inhibition,[23]; compound 0.02 µM,-5.4%
same,inhibition,[24]; compound 0.001 µM,0.7%
same,inhibition,[24]; compound 0.02 µM,-1.8%
same,inhibition,[25]; compound 0.001 µM,-4.5%
same,inhibition,[25]; compound 0.02 µM,-4.9%
same,inhibition,[26]; compound 0.001 µM,7.3%
same,inhibition,[26]; compound 0.02 µM,6.1%
same,inhibition,[27]; compound 0.001 µM,2.8%
same,inhibition,[27]; compound 0.02 µM,1.9%
same,inhibition,[28]; compound 0.001 µM,5.9%
same,inhibition,[28]; compound 0.02 µM,3.9%
same,inhibition,[29]; compound 0.001 µM,8.1%
same,inhibition,[29]; compound 0.02 µM,47.4%
same,inhibition,[30]; compound 0.001 µM,-5.1%
same,inhibition,[30]; compound 0.02 µM,-3.4%
same,inhibition,[31]; compound 0.001 µM,7.1%
same,inhibition,[31]; compound 0.02 µM,4.9%
same,inhibition,[32]; compound 0.001 µM,3.7%
same,inhibition,[32]; compound 0.02 µM,3.2%
same,inhibition,[33]; compound 0.001 µM,-5.9%
same,inhibition,[33]; compound 0.02 µM,-7.2%
same,inhibition,[34]; compound 0.001 µM,-8.6%
same,inhibition,[34]; compound 0.02 µM,2.9%
same,inhibition,[35]; compound 0.001 µM,-8%
same,inhibition,[35]; compound 0.02 µM,-6.9%
